Data set [1] concerns the target T1, urease expressed in whole cell Proteus mirabilis (Proteus mirabilis, UniProt P17086).
T1 construct: Urease in P. mirabilis is intracellular; endogenous in cells; host or cells: Proteus mirabilis B4 (Jenkins Group collection, University of Bath), whole cells
Put plainly: Urease activity assay (Berthelot), whole-cell P. mirabilis. In kind it is cell-based. As to conditions: for A1 (dose-response fit parameter) / A2 (dose-response fit parameter): % urease activity; for A1 (dose-response fit parameter) / A2 (dose-response fit parameter) / LOGx0 (dose-response fit): Proteus mirabilis whole cell, Supplementary Table 3; for fold lower IC50 than AHA: whole cell P. mirabilis urease. The method, then:
The in vitro assay used to measure the urease activity was the Berthelot assay, which measure the accumulation of ammonia.[54,55] Compounds were tested using whole-cell P. mirabilis B4 (from the Jenkins Group collection, University of Bath). P. mirabilis was cultured overnight, 37 °C with 200 rpm shaking in 10 mL of Luria-Bertani broth (LB, Merck, Germany). The overnight culture was centrifuged, 3100 g, 10 min, at 4 °C (5810 R Eppendorf); the supernatant was discarded, and the pellet resuspended in phosphate buffer saline (PBS, Fisher Scientific, UK). In each well of a 96-well plate (Corning) 10 μL of 0.5% sulfuric acid was added. P. mirabilis (100 μL, 0.004 mg mL^−1) in phosphate buffer was incubated with the desired compound concentration and urea (100 μL, 50 mM in phosphate buffer) for 30 min at 37 °C.
Experiments were run in triplicate of two technical replicates (n = 6), with 10-fold dilutions of the compounds including a positive and negative control. To each well, 20 μL of 60 mM sodium hydroxide is added. Solution A (50 μL, 106 mM phenol, 191 μM sodium nitroprusside) and solution B (50 μL, 125 mM sodium hydroxide, 125 mM sodium hypochlorite) were added to each well and the plate was incubated for 30 min at 37 °C. The absorbance of the wells was read at 636 nm (SPECTROstar Omega BMG LabTech, Germany). Urease activity was calculated using eqn (1). IC50 was determined using non-linear regression (GraphPad Prism v9).1 [drawing 1]

Data set [2] concerns P. mirabilis B4. Put plainly: Minimum inhibitory concentration (MIC) assay, P. mirabilis. It counts as cell-based, Proteus mirabilis. The method, then:
(§1) The compound was dissolved in sterile water with 5% (v/v) DMSO. To the first column on a 96-well plate (Corning, UK), 200 μL of compound was added, it was then serially diluted two-fold (100 μL) across the plate to column 10. A subculture of P. mirabilis (1 × 10^6 CFU mL^−1) or E. coli NSM59 (1 × 10^6 CFU mL^−1, from the Jenkins Group collection, University of Bath), 100 μL, was added to all columns 1–10. LB broth only was added to column 11, the negative control and 200 μL of P. mirabilis/E. coli subculture was added to column 12, the positive control. The plate was incubated at 37 °C for 18 h, using a SPECTROstar Omega plate reader (BMJ LabTech) the absorbance at 600 nm was measured at regular time points during the 18 h incubation. The plate was shaken for 10 s, at 200 rpm prior to a reading being taken. The MIC was defined as the lowest concentration of compound that inhibited growth and the highest concentration that permitted bacterial growth. Initially, this was done through visualization of the plate after 18 h but also through examination of the growth curves measured at OD600.

The next data set concerns E. coli NSM59. Kind of data set: Minimum inhibitory concentration (MIC) assay, E. coli. It counts as cell-based, Escherichia coli. The method, then: as §1
The nature of data set [3]: Delivery across the catheter balloon into artificial urine (UV-vis). As to conditions: 37 °C, 12 h. It counts as physicochemical. The protocol:
Delivery through the permeable balloon was measured using UV-vis spectroscopy with a quartz cuvette (pathlength 1 cm) (Agilent Cary 60 UV-vis spectrometer). Calibration curves for AHA (Sigma) and N,N′-bis(3-pyridinylmethyl)thiourea (Flurochem, Bis-TU (A11)) were prepared using absorbances 235 nm and 239 nm, respectively (Fig. S5 ^†). Sterile 50 mL beakers were used to mimic the bladder; catheters were inflated with compound solutions, AHA (320 mM) or Bis-TU (85 mM). Biomodics IPN catheters were compared to standard all-silicone catheters (Tiga-Med, Germany). Beakers were filled with artificial urine, prepared according to Nzakizwanayo et al., 30 mL was added to the beakers which were sealed with parafilm and incubated at 37 °C.[45] Every hour for 12 h, 1 mL was removed from the artificial urine surrounding the catheter balloon and the absorbance spectra was measured. The 1 mL was returned to the beaker, so the volume remained constant. The quantity of compound released over time was determined using the calibration curves. Limit of detection (LOD) was calculated by eqn (2), where σ is the standard deviation of the lowest concentration.2 [drawing 2]

Data set [4] deals with P. mirabilis B4. Kind of data set: In vitro bladder model of the catheterized urinary tract. In kind it is cell-based, Proteus mirabilis. As to conditions: balloon inflated with 20 mM compound, Biomodics IPN catheter. The method, then: The in vitro bladder model of a catheterized urinary tract enables the simulation of the crystalline biofilm and measurement of the blockage of the catheter caused by a P. mirabilis infection.[44,45] The artificial bladders were infected with a high inoculum of bacteria to mimic a late-stage CAUTI, average inoculation was 3.36 × 10^7 CFU mL^−1. Each model was catheterized with a Biomodics IPN catheter, and the balloons were inflated with 20 mM AHA in a 9 : 1 mixture of saline and DMSO; 20 mM Bis-TU in a 9 : 1 mixture of saline and DMSO; and the control bladder a 9 : 1 mixture of saline and DMSO. The artificial bladders were allowed to equilibrate over 18 h before inoculation. There is approximately a four-fold dilution during the diffusion of the compound in the artificial urine (∼5 mM at the start), however, this concentration changes once the pumps start because of the continual dilution from the filling of the bladder from the ‘kidneys’ and the drainage via the catheter. Monitoring of the pH and CFU mL^−1 in the bladder allowed tracking of the experiment (Fig. 6A and B). […] The blockage of the catheters was the end of the experiment and allowed determination of whether the compounds could increase the lifetime of the catheter (Fig. 6C).
In vitro bladder models were set up as described by Nzakizwanayo et al., the flow rate was set to run at 0.8 mL min^−1 using a Watson-Marlow 323S/D (030.3134.3DU) pump.[45] The artificial bladders were maintained at 37 °C and catheterized with Biomodics IPN catheters (donated by Biomodics ApS). Balloons were inflated with 10 mL of the following solutions: control bladder: a 9 : 1 mixture of saline (150 mM sodium chloride) and DMSO; Bis-TU bladder: 20 mM Bis-TU in a 9 : 1 mixture of saline and DMSO; and AHA bladder: 20 mM AHA in a 9 : 1 mixture of saline and DMSO. The models were set up and filled with artificial urine until they started to drain, the pump was then paused, and the compound solution allowed to equilibrate with the artificial urine in the bladder for 18 h. P. mirabilis B4 (from the Jenkins Group bacteria collection) was grown at 37 °C overnight with 200 rpm shaking in 10 mL of LB (Merck, Germany). […] Inoculation and CFU was determined by the Miles and Misra quantification technique.[56] At regular time intervals during the experiment, a sample was taken aseptically from each artificial bladder for bacterial quantification and to measure the pH. The end of the experiment was determined when the bladders blocked. Additionally, the artificial bladders were monitored by time-lapse photography overnight using a Nikon D3100 camera with photos taken every 2 min.

For a further data set, the system named is HepG2 cells. Kind of data set: HepG2 mammalian cell viability (MTT assay). In kind it is cell-based. As to conditions: for survival of HepG2 cells: 10 mM, 24 h incubation. The method, then:
Freezer stocks of HepG2 cells were defrosted and re-suspended in Dulbecco's Eagle medium (DMEM) complete (Gibco, this contains minimum essential media (MEM, Gibco)). A T75 flask (Nunc) was seeded with 10 mL of complete DMEM. Cells were grown for 3–4 days, a 37 °C, 5% CO2, to achieve adherent cells. Old media was removed and 5 mL of PBS added to wash the cells, this was then aspirated. Cells were incubated with 3 mL, 0.25% trypsin (Gibco), and PBS (previously warmed to 37 °C) for 7 min at 37 °C. After incubation cells were checked using a microscope (Nikon TMS inverted phase contrast) to confirm that they were no longer adherent. Cells were dissociated with 4 mL of media and re-suspended by pipetting 10 mL approximately 20 times. Cells were centrifuged for 3 min at 1000 rpm, media was aspirated, and pellet was resuspended in 1 mL of media. Cells were counted using a hemocytometer and new flasks were reseeded with 200 μL of cells to 10 mL of media. To maintain stocks, cells were sub-cultured every 2–3 days.
Compounds, AHA and Bis-TU, were prepared at 10 mM with 1% DMSO in DMEM media. Varying concentrations of compounds were prepared by serial dilution across at 96-well plate (100 μL). MTT (Invitrogen) assay was used to measure the metabolic activity of the HepG2 cells. MTT (1 mg mL^−1) in media was filter sterilized and cell culture plates, 96-well (Nunc), were seeded with 1 × 10^4 cells per well and grown for 24 h. Media/compound was removed and MTT (100 μL) was added for 60 min at 37 °C and then removed. Isopropanol (150 μL) was added and the plate was incubated in foil for 15 min on an orbital shaker. Absorbance was measured at 590 nm (reference filter at 620 nm) (Sunrise, Tecan). The % survival was calculated as per eqn (4).4 [drawing 4]
Background: Formazan colour is commonly taken as a measure of viable cells.

A short description of data set [5]: Solubility (statement in conclusions). It counts as physicochemical.

“Also recorded” adds a separate entry of the source. Like-named read-outs stand apart in the source and are kept apart here.

T1 sequence (P17086 whole entry): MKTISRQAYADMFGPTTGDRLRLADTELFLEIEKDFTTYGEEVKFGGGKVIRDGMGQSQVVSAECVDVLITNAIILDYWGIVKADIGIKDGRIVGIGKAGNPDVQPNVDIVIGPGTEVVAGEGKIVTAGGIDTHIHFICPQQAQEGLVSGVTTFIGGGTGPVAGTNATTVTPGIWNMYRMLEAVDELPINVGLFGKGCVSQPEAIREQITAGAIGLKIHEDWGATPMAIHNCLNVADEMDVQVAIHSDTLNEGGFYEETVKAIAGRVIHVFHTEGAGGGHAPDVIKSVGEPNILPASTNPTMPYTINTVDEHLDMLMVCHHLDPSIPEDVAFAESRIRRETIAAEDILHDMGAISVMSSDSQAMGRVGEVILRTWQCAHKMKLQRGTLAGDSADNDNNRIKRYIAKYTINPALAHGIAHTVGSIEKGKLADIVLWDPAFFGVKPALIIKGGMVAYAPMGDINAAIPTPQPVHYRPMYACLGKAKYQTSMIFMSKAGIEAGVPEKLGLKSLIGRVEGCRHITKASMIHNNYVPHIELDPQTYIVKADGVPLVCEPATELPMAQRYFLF

Broadly, the IC50 is the concentration that gives 50% inhibition. Take `S=C(NCc1cccnc1)NCc1cccnc1` [Compound A11, N,N′-bis(3-pyridinylmethyl)thiourea]: in data set [1], the IC50 was 1.4 µM, the “A1 (dose-response fit parameter)” value is -6.896%, the “A2 (dose-response fit parameter)” value is recorded as 85.9% and the “LOGx0 (dose-response fit)” value is listed as -5.851. For the same compound, the “fold lower IC50 than AHA” value in data set [1] is reported as “ca. 25 fold”. For the same compound, the “inhibitory effect on growth” value in the data set on P. mirabilis B4 [2] was “only a modest inhibitory effect”. In addition, the “inhibitory effect on growth” value in the data set with E. coli NSM59 is “only a modest inhibitory effect”. Moreover, in data set [3], the “release across balloon of Biomodics IPN catheter” value is “zero order kinetics release” and the “release across balloon of standard silicone catheter” value was “no release”. For the same compound, in the data set with P. mirabilis B4 [4], the “catheter blockage time (lifetime of the catheter)” value is “significantly outperformed the clinical standard AHA, and the control”; the “pH in the bladder model” value was “lower than that of the AHA and control bladders”; the “quantity of bacteria (CFU mL^−1) in the bladder model” value is on record as “comparable across all bladders”. The “survival of HepG2 cells” value in the data set with HepG2 cells was “affect the survival”. Further, the “effect on HepG2 cells, AHA vs Bis-TU” value in the data set on HepG2 cells (concentrations below 1.25 mM, 24 h) is reported as “no difference”. In data set [5], the solubility result is on record as “relatively low solubility”.
Turning to `O=c1c(O)c(-c2ccc(O)c(O)c2)oc2cc(O)cc(O)c12` [Quercetin, quercetin, reference compound], in data set [1], the midpoint of inhibition, the IC50, lay at 0.866 µM; the “A1 (dose-response fit parameter)” value is -6.874%; the “A2 (dose-response fit parameter)” value stood at 68.53%; the “fold lower IC50 than AHA” value is “ca. 25 fold”.
Regarding `NC(=O)CS` [Compound 2-MA, 2-mercaptoacetamide, reference compound], the IC50 result in data set [1] (whole cell Proteus mirabilis, ± standard deviation) was “did not fit to a sigmoidal dose–response curve; also recorded: No fit”.
For the compound “Acetohydroxamic acid [AHA, reference compound]”, in data set [1], the “A1 (dose-response fit parameter)” value came to 1.739%, the “A2 (dose-response fit parameter)” value is given as 91.3% and the “LOGx0 (dose-response fit)” value is recorded as -4.436. Moreover, the IC50 in data set [1] (whole cell Proteus mirabilis, ± standard deviation, read-out: IC50) came out at 36.6 µM. The “inhibitory effect on growth” value with P. mirabilis B4 [2] was “only a modest inhibitory effect”. Further, the “inhibitory effect on growth” value in the data set with E. coli NSM59 is given as “only a modest inhibitory effect”. Moreover, in data set [3], the “release across balloon of Biomodics IPN catheter” value was “zero order kinetics release” and the “release across balloon of standard silicone catheter” value is on record as “no release”. For the same compound, the “quantity of bacteria (CFU mL^−1) in the bladder model” value with P. mirabilis B4 [4] is on record as “comparable across all bladders”. In addition, in the data set on HepG2 cells, the “survival of HepG2 cells” value is “affect the survival”.
For the compound `NC(=S)Nc1ccccc1` [Compound A5, N-phenylthiourea], in data set [1], half-maximal inhibition (IC50) was put at 9.66 µM, the “A1 (dose-response fit parameter)” value is -2834%, the “A2 (dose-response fit parameter)” value is recorded as 141.8% and the “LOGx0 (dose-response fit)” value is -5.015.
For `NC(=S)NCc1ccccc1` [Compound A6, benzylthiourea], in data set [1], the IC50 came out at 22.7 µM, the “A1 (dose-response fit parameter)” value was found to be 5.57%, the “A2 (dose-response fit parameter)” value stood at 78.71% and the “LOGx0 (dose-response fit)” value is -4.644.

Values taken from paper PMC11391341, “Rational design and in vitro testing of new urease inhibitors to prevent urinary catheter blockage” (RSC Medicinal Chemistry, 2024).
